The record followed here is PubChem BioAssay (NCI).

SMILES strings stand for the structures.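 Interpolation was linear, between the two tested concentrations surrounding the appropriate level; five concentrations were tested over 48 hours in 96-well plates. TGI: total growth inhibition.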 Where a SMILES comes first, the peptide text is derived from it. The star is where a group is joined. Boc = CC(C)(C)OC(=O)*

What all share (test): NCI anticancer screen, dose series, 48 h
Assay [1] has as its system SNB-19 CNS.
For assay [2], the system named is CAKI-1 renal.
Assay [3] relates to OVCAR-4 ovarian.
Assay [4] concerns SF-295 CNS.
The test system of assay [5] is SNB-75 CNS.
Assay [6] concerns BT-549 breast.
For assay [7], the system named is HCT-15 colon.
Assay [8] deals with UACC-62 melanoma.
Assay [9] concerns 786-0 renal.
The test system of assay [10] is CCRF-CEM leukemia.
For assay [11], the system named is SK-MEL-28 melanoma.
Assay [12] has as its system MALME-3M melanoma.
Assay [13] concerns HL-60(TB) leukemia.

With `C=C1C2C[C@@H]3O[C@H]4C[C@H]5O[C@@]6(C[C@@H]7O[C@]8(C[C@H](C)[C@@H]9O[C@@H]%10CC(C=O)O[C@@H]%10C[C@@H]9O8)C[C@H](C)[C@@H]7O6)C[C@H]5O[C@H]4[C@H](C)[C@H]3OC(=O)C[C@H]3CC[C@@H]4OC5[C@H]6O[C@]7(CC[C@H]8CC(=C)[C@H](CC[C@@H](C[C@H]1C)O2)O8)CC6O[C@@H]5[C@@H](O7)[C@H]4O3` (stereo partly drawn), the TGI in assay [1] was above 1 µM; in assay [2] it was above 1 µM; in [3], above 1 µM; in assay [4], above 1 µM; in assay [5], above 1 µM; in assay [6] it was below 0.0001 µM. Also, the TGI in assay [7] is 0.00609 µM; in [8], above 1 µM; in assay [9], 0.971 µM.

`COC(=O)CNC(=O)CNC(=O)CSc1nnc(COc2ccc(Cl)cc2)n1-c1ccccc1`: the TGI in assay [1] was above 100 µM; in assay [2], 31.7 µM; in [10] it was 57.4 µM; in assay [3], above 100 µM; in [4], above 100 µM; in [11] it was 56.3 µM. Moreover, the TGI in assay [5] was 60.2 µM; in [6], 58.8 µM; in [12] it was 35.3 µM; in assay [7] it was above 100 µM; in [8], 33.5 µM; in assay [9], above 100 µM.

Consider `CSCCC(NC(=O)Cc1ccc(C(=O)c2ccccc2)cc1)C(=O)N1CCN(CCCCN2c3ccccc3Sc3cc(N=[N+]=[N-])ccc32)CC1` (stereo not drawn), for which the TGI in assay [2], in assay [10], in assay [3], in assay [4], in assay [13] and in [6] was above 100 µM in each case. Further, the TGI in assay [12], in [7], in assay [8] and in assay [9] was above 100 µM in each case.

As for `CC(NC(=O)C1CCCN1C(=O)CNC(=O)OC(C)(C)C)C(=O)O` (stereo not drawn) (Boc-Gly-Pro-Ala-OH; configuration not given here), the TGI in [1], in [2], in [4], in [11], in assay [5] and in assay [6] was above 100 µM in each case. Also, the TGI in [12], in assay [7], in assay [8] and in assay [9] was above 100 µM throughout.

Regarding `COC(=O)CN=C1NC(=S)N(Cc2ccc(OC)cc2)C12CCCC2`, the TGI in [1], in assay [2], in [10], in assay [3], in assay [4] and in assay [11] was above 100 µM each time. Also, the TGI in assay [5], in assay [6], in assay [12], in [7], in assay [8] and in assay [9] was above 100 µM throughout.

With `COc1ccc(C[n+]2cccc(O)c2)cc1`, the TGI in [1], in assay [10], in assay [4], in assay [11], in [13] and in [6] was above 100 µM in each case. Besides, the TGI in assay [12], in assay [8] and in assay [9] was above 100 µM throughout.

For `COc1ccc(C(=O)N2CCN(c3ccc4c(c3)OCC(=O)N4)CC2)cc1OC`, the TGI in [1], in assay [10], in assay [3], in [4], in assay [11] and in [13] was above 100 µM in each case. Moreover, the TGI in assay [5], in [6], in [12], in assay [7], in assay [8] and in assay [9] was above 100 µM throughout.

In the case of `COc1ccc2nc3c(C)cc4ccccc4n3c2c1`, the TGI in [1], in assay [10], in assay [4], in assay [11], in [13] and in assay [5] was above 100 µM in each case. Moreover, the TGI in [6], in assay [12], in assay [7], in [8] and in [9] was above 100 µM throughout.

With `Fc1cc(C2=Nn3c(CNc4ccc(Cl)cc4)nnc3S/C2=C\c2ccc(-c3ccc(Cl)cc3)o2)c(Cl)cc1Cl`, the TGI is above 100 µM in assay [1]; 72.4 µM in assay [2]; above 100 µM in assay [10]; 52.4 µM in assay [4]; above 100 µM in assay [11]; above 100 µM in assay [13]. The TGI in assay [6] is above 100 µM; in assay [12], 60.7 µM; in assay [7], above 100 µM; in [8], 55.8 µM; in assay [9] it was above 100 µM.

As to `CCCCCCCCCC(=O)NCCc1c[nH]c2ccc(OC)cc12`, the TGI in assay [1] is 31.2 µM; in assay [2], 65.6 µM; in assay [10] it was 37.5 µM; in [3], above 100 µM; in [4], 32 µM; in assay [11], 33.1 µM. Also, the TGI in assay [5] turned out to be 44 µM; in assay [6], 32.9 µM; in [12], 34.3 µM; in assay [7], 36.2 µM; in [8], 30.4 µM; in [9], 38.7 µM.

In the case of `CC(=O)Nc1ncc2c(n1)-c1ccccc1OC2c1ccccc1` (stereo not drawn), the TGI in assay [1] was 89.6 µM; in assay [2], 68.3 µM; in [10], above 100 µM; in [3] it was 85.5 µM; in [4], above 100 µM; in assay [13] it was above 100 µM. Besides, the TGI was 40.5 µM in [5]; above 100 µM in assay [6]; above 100 µM in assay [7]; 36.4 µM in [8]; 38.2 µM in [9].

Take `CCN(CC)C(=S)/N=C(\SC(=S)N(CC)CC)c1ccccc1`: the TGI in assay [1], in assay [2], in assay [10], in [3], in [4] and in [11] was above 100 µM each time. The TGI in [5], in [6], in assay [12], in [7], in assay [8] and in [9] was above 100 µM in each case.

As for `O=c1oc2ccc3ccccc3c2cc1-c1nc(-c2ccc([N+](=O)[O-])cc2)n[nH]1`, the TGI in assay [1], in [2], in [10], in assay [3], in assay [4] and in [11] was above 100 µM each time. In addition, the TGI in assay [13] was above 100 µM; in assay [6] it was 79.8 µM; in assay [12] it was above 100 µM; in assay [7], above 100 µM; in assay [8] it was above 100 µM; in assay [9], above 100 µM.

With `Cc1cn(CC2=NC3CCCCC3N2)c(=O)[nH]c1=O` (stereo not drawn), the TGI in assay [1], in assay [10], in [4], in assay [11], in [13] and in assay [5] was above 100 µM throughout. In addition, the TGI in assay [6], in assay [12], in [7], in assay [8] and in assay [9] was above 100 µM each time.

For the compound `O=C(O)CCNc1ncc2c(n1)-c1ccccc1OC2`, the TGI in assay [1], in assay [2], in assay [10], in assay [3], in assay [4] and in [11] was above 100 µM each time. Moreover, the TGI in assay [13], in assay [5], in [12], in assay [7], in assay [8] and in assay [9] was above 100 µM each time.

`CC(O)CC(=O)CO[C@H]1[C@H](O)[C@@H](O)[C@@H](O)[C@@H]2NC(=O)c3c(cc4c(c3O)OCO4)[C@H]21` (stereo partly drawn): the TGI in [1] came out at 0.0754 µM; in assay [3] it was 0.287 µM; in assay [4], 0.314 µM; in assay [11], 8.03 µM; in assay [13], 0.2 µM; in [5], 0.404 µM. Also, the TGI came out at 0.482 µM in assay [6], 0.0529 µM in assay [12], 0.682 µM in [8] and 0.485 µM in assay [9].

Take `Cc1cc(O)c2c(c1)C(C1OC(CO)C(O)C(O)C1O)c1cc(O)cc(O)c1C2=O` (stereo not drawn): the TGI in [1], in assay [10], in assay [3], in [4], in assay [11] and in [13] was above 100 µM throughout. Besides, the TGI in assay [5], in [6], in assay [12], in assay [7], in assay [8] and in assay [9] was above 100 µM in each case.

Consider `Fc1ccc(Oc2nc3ccccc3nc2-c2ccccc2)cc1`, for which the TGI in [1], in assay [2], in assay [10], in assay [3], in [4] and in assay [11] was above 100 µM throughout. Also, the TGI in [13], in assay [6], in assay [12], in [7], in [8] and in assay [9] was above 100 µM each time.

Consider `O=C(NC1CCN(Cc2ccccc2)CC1)c1cccc(I)c1`, for which the TGI in [1] was above 100 µM; in assay [2] it was 54.5 µM; in assay [10], above 100 µM; in assay [3], above 100 µM; in assay [4], 33.8 µM; in assay [11] it was 37.4 µM. The TGI in assay [13] is above 100 µM; in assay [6], above 100 µM; in [12], 32.5 µM; in assay [7], 35.6 µM; in [8] it was 40.1 µM; in [9], 57.8 µM.

For the compound `O=C1NC(=S)N/C1=C\c1ccc(Cl)cc1`, the TGI in assay [1], in [2], in [10], in assay [3], in assay [4] and in [11] was above 100 µM each time. Further, the TGI in [5], in assay [6], in assay [12], in assay [7], in assay [8] and in assay [9] was above 100 µM each time.

For `O=C(/C=C\c1ccsc1)c1ccccc1`, the TGI in assay [1] is 25.9 µM; in assay [2] it was 8.12 µM; in [10], 3.41 µM; in assay [3], 16.4 µM; in [4], 29.3 µM; in [11], 24.9 µM. In addition, the TGI amounted to 4.16 µM in assay [13]; 24.3 µM in [5]; 26.2 µM in assay [6]; 14.6 µM in [7]; 24.6 µM in assay [8]; 19.7 µM in assay [9].

On to `CCCCC(O)(c1ccccc1)C(O)(c1ccccc1)c1c(F)c(F)c(F)c(F)c1F` (stereo not drawn), for which the TGI in [1] was above 100 µM; in assay [10], 88.7 µM; in assay [3], above 100 µM; in [11], 86.1 µM; in [13], 61.9 µM; in assay [5], above 100 µM. Moreover, the TGI in assay [6] was above 100 µM; in assay [12], 32.6 µM; in assay [7], 30.1 µM; in assay [8], 39.2 µM; in assay [9] it was 39.4 µM.

Consider `CC(C)(C)CNCCCNc1ccc(Cl)cc1`, for which the TGI in assay [1] was above 100 µM; in assay [10], above 100 µM; in assay [3], above 100 µM; in assay [4], 69.1 µM; in assay [11], 44.3 µM; in assay [13], 0.172 µM. Moreover, the TGI is above 100 µM in assay [6]; 53.9 µM in assay [12]; above 100 µM in assay [7]; 33.4 µM in [8]; above 100 µM in assay [9].
